According to patent publication US20250084065A1, “INHIBITING MONOACYLGLYCEROL LIPASE (MAGL)” (Psy Therapeutics, Inc., priority 2021, published 2025):
Like-named read-outs stand apart in the source and are kept apart here.

Assays:
human MAGL = molecular target: T1, human MAGL (Homo sapiens, UniProt Q99685); test: MAGL inhibition potency assay with 4-nitrophenyl acetate (4NPA) substrate, absorbance 405 nm; format: biochemical; conditions: read-out: MAGL Potency (Detection Method)
T1 construct: recombinant MAGL enzyme (aa 2-303 RBC, internal preparation)
T1 sequence (Q99685 2-303): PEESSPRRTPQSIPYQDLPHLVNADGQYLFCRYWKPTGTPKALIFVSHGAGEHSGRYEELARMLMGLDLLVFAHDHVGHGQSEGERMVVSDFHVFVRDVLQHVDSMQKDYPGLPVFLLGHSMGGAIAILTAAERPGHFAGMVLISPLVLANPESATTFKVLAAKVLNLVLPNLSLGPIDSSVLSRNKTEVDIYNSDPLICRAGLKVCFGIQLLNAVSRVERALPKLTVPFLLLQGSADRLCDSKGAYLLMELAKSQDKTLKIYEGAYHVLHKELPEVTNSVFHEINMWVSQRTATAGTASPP
Source text: Example 22: Measuring MAGL Inhibition Potency (IC50) The potency of certain compounds for inhibiting MAGL were obtained using the following assays. The monoacylglycerol lipase inhibitor screening assay kit from Cayman Chemical was used to measure the MAGL potency for the compounds in Table 6 and Table 7. Cayman's Monoacylglycerol Lipase Inhibitor Screening Assay provides a method for screening human MAGL inhibitors. MAGL hydrolyzes 4-nitrophenylacetate resulting in a yellow product, 4-nitrophenol, with an absorbance of 405-412 nm. MAGL Inhibition was measured by the following assay. Monoacylglycerol Lipase (MAGL) inhibition was measured using recombinant MAGL enzyme (aa 2-303 RBC, internal preparation) and the substrate 4-Nitrophenyl acetate (4NPA) (Sigma-Aldrich, N8130). Hydrolysis of the substrate in the presence of the enzyme was measured by absorbance at 405 nm. 10 μL of assay buffer (10 mM Tris pH 7.5, 1 mM EDTA, 0.9% DMSO) was added to a black 384-well non-binding plate with clear bottom (Greiner, 781906) for each reaction. […] DMSO control wells were included for reference. A 10.8 nM (1.8×) MAGL mix in assay buffer was prepared, with 25 μL added to each reaction well, for a final assay concentration of 6 nM. No enzyme wells received 25 μL of buffer. Plate was incubated at room temperature for 30 minutes. 35 mM solution of 4NPA in methanol was prepared daily. A 4.5×4NPA substrate solution was prepared in assay buffer and 10 μL was added to each reaction well, for a final assay concentration of 0.25 mM. Plate was spun for […] at 100 rpm before measuring absorbance using a CLARIOstar plate reader (BMG Labtech). A kinetic reading at 405 nm was done every minute for 30 minutes. Data was analyzed using the linear slope of the reaction progress curve and the average of the no-enzyme wells (background) was subtracted from the data. The background-subtracted slope data was converted to % activity using the average of wells with enzyme and DMSO vehicle. IC50 were calculated using GraphPad software (Sigmoidal dose response, variable slope equation). […] Table S provides potency measurements of MAGL inhibition measured using the Potency Assay of Example 22 above, with the following modifications described in Table C. [table]

[1] = Pharmacokinetic study of compounds in mice (brain exposure); format: in vivo, male C57BL/6 mice; conditions: oral; for AUC(0-t) / Cmax: male, C57BL/6, mouse, 5 mg/kg, Protocols B-E
Description: Example 25: Pharmacokinetic Study of Compounds in Mice
Healthy male C57BL/6 mice (8-12 weeks old) weighing between 17 to 35 g were procured from Global, India. Temperature and humidity were maintained at 22±3° C. and 30-70%, respectively and illumination was controlled to give a sequence of 12 hr light and 12 hr dark cycle. Temperature and humidity were recorded by auto-controlled data logger system. All the animals were provided laboratory rodent diet. Reverse osmosis water treated with ultraviolet light was provided ad libitum.
Protocol A: Twenty-four male mice were divided into two groups as; Group 1: 30 mg/kg/IP; Plasma and brain; Number of animals=12; Animal #1-12. Group 2: 30 mg/kg/PO; Plasma and brain; Number of animals=12; Animal #13-24. Animals in Group 1 were administered intraperitoneally with solution formulation of PSY-05-00074-001 in 5% NMP, 5% Solutol HS-15 and 90% normal saline at […] dose. Animals in Group 2 were administered orally with solution formulation of PSY-05-00074-001 in 5% NMP, 5% Solutol HS-15 and 90% normal saline at 30 mg/kg dose. Blood samples (approximately 60 μL) were collected under light isoflurane anesthesia from retro orbital plexus at 0.25, 0.5, 1, 2, 4 and 8 hr (IP and PO). Plasma samples were separated by centrifugation of whole blood and stored below −70° C. until bioanalysis. Immediately after collection of blood from intraperitoneal and oral group animals, animals were euthanized with excess CO2 and brain samples were collected from set of two mice at each time point. Brain samples were divided into two parts. Half brain samples were homogenized using ice-cold phosphate buffer saline (pH-7.4) and homogenates were stored below −70±10° C. until analysis. Total homogenate volume was three times the brain weight. Other part of brain was stored below −70±10° C. for further analysis. All samples were processed for analysis by protein precipitation using acetonitrile and analyzed with fit-for-purpose LC/MS/MS method (LLOQ-2.02 ng/mL for plasma and 6.06 ng/g for brain). Pharmacokinetic parameters were calculated using the non-compartmental analysis tool of Phoenix WinNonlin®.
Protocol B: Thirty six mice were included into the study and divided in to three groups as Group 1 (n=12), Group 2 (n=12) and Group 3 (n=12) with n=2 mice per time-point design. Animals in Group 1 were administered intravenously with solution formulation of PSY-05-00414-001 at 5 mg/kg dose. Animals in Group 2 were administered orally with solution formulation of PSY-05-00414-001 at a dose of 5 mg/kg. Animals in Group 3 were administered intraperitoneally with solution formulation of PSY-05-00414-001 at 5 mg/kg dose. The formulation vehicle for all the three groups was 5% NMP, 5% Solutol HS-15 and 90% normal saline. Blood samples (approximately 60 μL) were collected under light isoflurane anesthesia from two mice at 0.25, 0.5, 1, 2, 4 and 8 h. Plasma was harvested by centrifugation of blood and stored at −70±10° C. until analysis. After blood collection, brain was perfused and isolated at 0.25, 0.5, 1, 2, 4 and 8 h. Brain samples were dipped thrice in ice-cold phosphate buffer saline, blotted dry and cut in to two equal portion. Half-brain samples from each time-point were weighed and homogenized using ice-cold phosphate buffer saline with twice volume of brain weight making the total homogenate three volumes and stored below −70±10′° C. until analysis. Remaining half-portions of brain samples was snap freeze and kept in −70±10° C. until further confirmation from client. Plasma and brain samples were quantified by fit-for-purpose LC-MS/MS method (LLOQ: 1.01 ng/mL for plasma and 2.02 ng/mL for brain).
Protocol C: Fifty four male mice were included in study and divided in to three groups as Group 1 (n=18), Group 2 (n=18) and Group 3 (n=18) with 3 mice/time point design. […]

[2] = Method 12: Reaction Biology MAGL enzyme prep, 15 nM enzyme
[3] = Method 13: Reaction Biology MAGL enzyme prep, 12 nM enzyme

`Cc1ccccc1-n1nccc1C1CC2(C1)CN(C(=O)c1cc(O)ccc1F)C2` [Compound 367, (2-fluoro-5-hydroxyphenyl) (6-(1-(o-tolyl)-1H-pyrazol-5-yl)-2-azaspiro [3.3]heptan-2-yl) methanone] gave an IC50 (human MAGL; Method 14: Reaction Biology MAGL enzyme prep, 6 nM enzyme (Conc "0", Source "0")) of 50 to 150 nM.
For `O=C(c1ccc(F)cc1OC1CC1)N1CC2(CC(n3nc(-c4ccccc4C(F)(F)F)cc3C(F)(F)F)C2)C1` (single isomer, unassigned) [Compound 451, (2-cyclopropoxy-4-fluorophenyl)(6-{5-(trifluoromethyl)-3-[o-(trifluoromethyl)phenyl]-1-pyrazolyl}-2-aza-2-spiro[3.3]heptyl)methanone], the IC50 (human MAGL; Method 6: Reaction Biology MAGL enzyme prep, 6 nM enzyme) was 50 to 150 nM, the AUC(0-t) [1] was 1200 ng·h/mL and the Cmax [1] was 271 ng/g.
`O=C(c1cc(O)ccc1F)N1CC2(CC(n3ncc(C4CC4)c3-c3ccccc3F)C2)C1` (single isomer, unassigned) [Compound 492, (6-(4-Cyclopropyl-5-(2-fluorophenyl)-1H-pyrazol-1-yl)-2-azaspiro [3.3]heptan-2-yl) (2-fluoro-5-hydroxyphenyl) methanone] showed an IC50 (human MAGL; [2]) of 50 to 150 nM.
Work on `Cc1cc(C2CC3(C2)CN(C(=O)c2ccc(F)cc2OC2CC2)C3)n(-c2cc(F)ccc2C)n1` (single isomer, unassigned) [Compound 418, (2-cyclopropoxy-4-fluorophenyl){6-[1-(5-fluoro-2-tolyl)-3-methyl-5-pyrazolyl]-2-aza-2-spiro[3.3]heptyl}methanone] yielded an IC50 (human MAGL; [2]) of 50 to 150 nM.
In the case of `Cc1ccc(F)cc1-c1cc(C2CC2)nn1C1CC2(C1)CN(C(=O)c1cc(O)ccc1F)C2` (single isomer, unassigned) [Compound 490, (6-(3-cyclopropyl-5-(5-fluoro-2-methylphenyl)-1H-pyrazol-1-yl)-2-azaspiro [3.3]heptan-2-yl) (2-fluoro-5-hydroxyphenyl) methanone], the IC50 (human MAGL; [3]) is reported as 50 to 150 nM.
Work on `Cc1cnn(C2CC3(C2)CN(C(=O)c2cc(O)ccc2F)C3)c1-c1cc(F)ccc1F` (single isomer, unassigned) [Compound 476, (6-(5-(2,5-Difluorophenyl)-4-methyl-1H-pyrazol-1-yl)-2-azaspiro [3.3]heptan-2-yl) (2-fluoro-5-hydroxyphenyl) methanone] yielded an AUC(0-t) [1] of 224 ng·h/mL and a Cmax [1] of 72 ng/g.
In the case of `Cc1cc(C2CC3(C2)CN(C(=O)c2cc(O)ccc2F)C3)n(-c2ccccc2C)n1` [Compound 74, (2-fluoro-5-hydroxyphenyl)(6-(3-methyl-1-(o-tolyl)-1H-pyrazol-5-yl)-2-azaspiro[3.3]heptan-2-yl)methanone], the “AUClast” value ([1]; 30 mg/kg, Protocol A) is reported as 116.52 ng·h/mL.
With `Cc1ccc(F)c(-c2c(C(F)(F)F)cnn2C2CC3(C2)CN(C(=O)c2cc(O)ccc2F)C3)c1` (single isomer, unassigned) [Compound 474, (2-fluoro-5-hydroxyphenyl)(6-(5-(2-fluoro-5-methylphenyl)-4-(trifluoromethyl)-1H-pyrazol-1-yl)-2-azaspiro[3.3]heptan-2-yl)methanone] the IC50 (human MAGL; [2]) was 150 to 500 nM.
Work on `Cc1ccc(F)cc1-n1nc(C2CC3(C2)CN(C(=O)c2ccc(F)cc2OC2CC2)C3)cc1C` (single isomer, unassigned) [Compound 482, (2-cyclopropoxy-4-fluorophenyl){6-[1-(5-fluoro-2-tolyl)-5-methyl-3-pyrazolyl]-2-aza-2-spiro[3.3]heptyl}methanone] yielded an IC50 (human MAGL; [2]) of 500 to 1000 nM.
Work on `O=C(c1cc(O)ccc1F)N1CC2(CC(n3ncc(C(F)(F)F)c3-c3ccccc3F)C2)C1` (single isomer, unassigned) [Compound 472] yielded an IC50 (human MAGL; [2]) of 50 to 150 nM.
In the case of `Cc1ccc(F)cc1-c1cc(C2CC2)n(C2CC3(C2)CN(C(=O)c2cc(O)ccc2F)C3)n1` (single isomer, unassigned) [Compound 491, (6-(5-cyclopropyl-3-(5-fluoro-2-methylphenyl)-1H-pyrazol-1-yl)-2-azaspiro [3.3]heptan-2-yl)(2-fluoro-5-hydroxyphenyl)methanone], the IC50 (human MAGL; [3]) is reported as less than 50 nM.
`O=C(c1cc(O)ccc1F)N1CC2(CC(n3nccc3-c3ccccc3C(F)(F)F)C2)C1` (single isomer, unassigned) [Compound 526, (2-fluoro-5-hydroxyphenyl)(6-(5-(2-(trifluoromethyl)phenyl)-1H-pyrazol-1-yl)-2-azaspiro [3.3]heptan-2-yl)methanone] showed an IC50 (human MAGL; [2]) of 50 to 150 nM.
